The structures appear in SMILES notation. In brackets after ≈: the same amount, converted by molar mass. Residues, ends and D or L forms follow the SMILES beside them.

The conditions of this series: buffer; pH 7.4; 200.0 µM.
As a reminder, the solubility (kinetic) is the concentration staying in solution when a stock, usually in DMSO, is diluted into the medium. Turning to `COc1cc2[nH]c(Cl)c([N+](=O)[O-])c2cc1OC`, the solubility (kinetic) is above 38.5 µg/mL.
Consider `Cc1oc(S(=O)(=O)N2CCCC2)cc1C(=O)Nc1ccccc1`, for which the kinetic solubility is 4.3 µg/mL (≈ 12.9 µM).
`O=C(NC1CCN(c2ncccn2)CC1)c1cccc(F)c1` came in with a kinetic solubility of 32.8 µg/mL (≈ 109 µM).
In the case of `CC(C)=CCN1CCN(Cc2cccc3nccnc23)CC1CCO` (centres undefined) it was above 51.1 µg/mL.
With `COc1cc(C(=O)N2C[C@H]3C[C@@H](C2)c2cccc(=O)n2C3)cc(OC)c1OC`, the solubility (kinetic) is above 57.7 µg/mL.
Then `O=C(COC(=O)c1cccc(Cl)c1Cl)NC1CCCC1`, with 12.8 µg/mL (≈ 40.5 µM); and `CCC1CCCCN1CC(C)(C)NS(=O)(=O)c1ccccc1` (centres undefined), with 39.2 µg/mL (≈ 121 µM).
Then `CC(NC(=O)c1cc(=O)[nH]c2ccccc12)c1ccc(F)cc1F` (centres undefined), with 2.8 µg/mL (≈ 8.53 µM); and `O=C1CC(c2ccccc2Cl)CC(O)=C1C=NCCCO` (centres undefined), with 44.3 µg/mL (≈ 144 µM).
In the case of `CCOc1ncccc1-c1nc(-c2cccs2)no1` it was 1.8 µg/mL (≈ 6.59 µM); in that of `CC(C)(C)OC(=O)N1CCCN(C(=O)c2ccc(Cl)cc2)CC1`, above 50.8 µg/mL.
As for `Cc1ccc[n+](CC(=O)N2CCCc3ccccc32)c1.[Cl-]`, the solubility (kinetic) is above 45.4 µg/mL.
In the case of `Cc1ccc(NC(=O)C(=O)NCCc2c[nH]c3ccccc23)c(C)c1` it was 0.4 µg/mL (≈ 1.19 µM); in that of `Cc1nc(C)c(C(=O)NCCC(c2ccccc2)c2ccccc2)o1`, 43.8 µg/mL (≈ 131 µM); in that of `Cc1cnc(C(=O)N2CCN(S(=O)(=O)c3ccc(F)c(F)c3F)CC2)cn1`, 55.8 µg/mL (≈ 139 µM).
On to `NC(=O)CSc1nc2ccccc2nc1SCC(N)=O`, for which the kinetic solubility turned out to be 6.2 µg/mL (≈ 20.1 µM).
Compound `COc1cc(OC)c(C(=O)Nc2cccc3ccccc23)cc1OC` gave a kinetic solubility below 0.7 µg/mL.
Then `CC(C)c1ccc(S(=O)(=O)Nc2ccc3c(c2)OCO3)cc1`, with 26.4 µg/mL (≈ 82.7 µM); and `O=C(CSCc1c(F)cccc1Cl)NCc1ccncc1`, with above 48.7 µg/mL.
In the case of `O=C(O)c1nc(NCCc2ccccc2)ncc1Cl` it was above 41.7 µg/mL; in that of `CC(C)N(C1=CC(=O)OC12CCCCC2)C(C)C`, above 37.7 µg/mL.
In the case of `COc1nc2ccccc2nc1N1CCN(Cc2ccc3c(c2)OCO3)CC1` it was 2.9 µg/mL (≈ 7.66 µM); in that of `Cc1ccc(NCCC(=O)c2cccs2)cc1C`, 18.1 µg/mL (≈ 69.8 µM); in that of `Cc1ccnc(NS(=O)(=O)c2ccc(NS(C)(=O)=O)cc2)n1`, 47.8 µg/mL (≈ 140 µM).
As for `c1cc(CNCCc2ccc3c(c2)OCO3)ccn1`, the kinetic solubility was determined as 28.5 µg/mL (≈ 111 µM).
Then `O=C(NNC(=O)c1ccco1)c1csc(N2CCOCC2)n1`, with above 48.4 µg/mL; and `S=C(NCc1cccnc1)Nc1cc(Cl)cc(Cl)c1`, with 39.6 µg/mL (≈ 127 µM); and `CN(C)c1cccc(C(=O)N(Cc2ccccc2)Cc2ccccc2)c1`, with 4.2 µg/mL (≈ 12.2 µM).
In the case of `O=C(NCCc1ccccc1)c1cccc(N2CCCC2=O)c1` it was above 46.3 µg/mL; in that of `COc1ccccc1NC(=O)Nc1ccc2c(c1)nc(C)n2C`, 5.7 µg/mL (≈ 18.4 µM).
In the case of `COc1ccccc1CNc1ncnc2cc(OC)c(OC)cc12` it was 13 µg/mL (≈ 40 µM); in that of `CCOc1ccccc1NC(=O)COC(=O)C1CCC1`, 39.2 µg/mL (≈ 141 µM); in that of `Cc1cc2c(NCc3ccccc3)ncnc2s1.Cl`, 41.7 µg/mL.
Regarding `Cc1c(Cl)cccc1NC(=O)CCN1CCOCC1`, the kinetic solubility was above 42.4 µg/mL.
Then `Cc1cc2cc(CNC(=S)NCc3ccccc3)ccc2n1C`, with 1.8 µg/mL (≈ 5.56 µM); and `O=C(COC(=O)c1ccco1)NCc1ccccc1Cl`, with above 44.1 µg/mL; and `CC1=NN(c2nc(-c3ccc(C#N)cc3)cs2)C(=O)C1`, with above 42.3 µg/mL.
In the case of `COCc1[nH]c(=S)c(C#N)cc1C(=O)OC` it was 27.9 µg/mL (≈ 117 µM).
In the case of `O=C(CCNC(=O)c1ccccc1)NC1CCCc2ccccc21` (centres undefined) it was 43.4 µg/mL (≈ 135 µM); in that of `Cc1nnc(Nc2ccc(C(=O)O)cc2)[nH]c1=O`, above 36.9 µg/mL.
Regarding `Cc1ccccc1C(=O)NCC(=O)NC1CC1`, the solubility (kinetic) was above 34.8 µg/mL.
As for `O=S(=O)(c1cccc2cccnc12)N1CCCc2ccccc21`, the solubility (kinetic) came out at 1.3 µg/mL (≈ 4.01 µM).
In the case of `Cc1ccc(Cl)c(NC(=O)CN2CCNC(=O)C2)c1Cl` it was above 47.4 µg/mL.
As for `Cc1ccc(N=Cc2c(O)c3ccccc3n(C)c2=O)cc1`, the solubility (kinetic) is 3.3 µg/mL (≈ 11.3 µM).
In the case of `CCCCn1c(=O)[nH]c(=O)c2c1nc(-c1cccc(OC)c1)n2C` it was 3.1 µg/mL (≈ 9.44 µM); in that of `CCC(=O)NC1CC2CCCC(C1)N2Cc1ccc(C)cc1` (centres undefined), above 45.1 µg/mL; in that of `O=C(CNC(=O)c1ccccc1)OCC(=O)c1ccccc1Cl`, above 49.8 µg/mL.
Then `CCOC(=O)c1sc(NC(=O)CCc2ccccc2)nc1C`, with below 0.3 µg/mL; and `COc1ccc(C(=O)Cn2cc([N+](=O)[O-])nc2C)cc1`, with 13.5 µg/mL (≈ 49 µM); and `Cc1nc2sc(C(=O)Nc3ccccc3)c(N)c2c(C)c1[N+](=O)[O-]`, with 0.8 µg/mL (≈ 2.34 µM).
In the case of `CCN(CC)c1ccc(N2C(=O)/C(=C/c3ccccn3)SC2=S)cc1` it was below 0.3 µg/mL; in that of `CCC(OC(=O)c1ccco1)C(=O)NCc1ccc2c(c1)OCO2` (centres undefined), 46.5 µg/mL (≈ 140 µM).
Consider `COC(=O)Cc1nc(NC(=O)c2cccs2)sc1C`, for which the kinetic solubility is above 44.5 µg/mL.
Turning to `O=C(COC(=O)Cc1c(Cl)cccc1Cl)NC1CCCC1`, the solubility (kinetic) is above 49.5 µg/mL.
Then `O=C(NC1CCCCC1)C1CCN(c2ncccn2)CC1`, with above 43.3 µg/mL; and `Cc1ccccc1C(=O)N1CCC(C(=O)OCc2ccccn2)CC1`, with above 50.8 µg/mL.
Then `Cc1noc(C)c1C(=O)NCCc1c(C)[nH]c2ccccc12`, with 41.5 µg/mL (≈ 140 µM); and `N#Cc1cccc(NC(=O)Cc2ccsc2)c1`, with 33.4 µg/mL (≈ 138 µM).
In the case of `NS(=O)(=O)c1ccc(NC(=S)NC(=O)C2CCCCC2)cc1` it was above 51.2 µg/mL; in that of `CCn1ccnc1C(O)(c1ccccc1)c1ccccc1`, above 41.8 µg/mL.
With `COC(=O)c1ccc(C(=O)OC)c(NC(=O)c2cccnc2)c1`, the solubility (kinetic) was 2.3 µg/mL (≈ 7.32 µM).
In the case of `Cc1cccc(S(=O)(=O)N2CCCc3ccccc32)c1` it was 6.7 µg/mL (≈ 23.3 µM); in that of `O=C(O)Cc1ccc(NC(=O)Nc2ccc3c(c2)OCO3)cc1`, above 47.1 µg/mL; in that of `CC(=Nc1ccc(F)cc1)c1c(O)n(C)c(=O)[nH]c1=O`, 7 µg/mL (≈ 25.2 µM).
In the case of `CC1CCCCC12NC(=O)N(CC(=O)OCC(=O)Nc1ccc(F)cc1[N+](=O)[O-])C2=O` (centres undefined) it was 7.5 µg/mL (≈ 17.2 µM).
Then `O=C(CN1CCCC1)Nc1ccc([N+](=O)[O-])cc1`, with above 37.4 µg/mL.
In the case of `Cc1cccc(NC(=O)c2cccc(C(=O)Nc3cccc(C)c3C)n2)c1C`, the kinetic solubility was determined as 1.1 µg/mL (≈ 2.95 µM).
In the case of `COC(=O)[C@H](Cc1ccccc1)NC(=O)[C@@H](N)CC(=O)O` (H-Asp-Phe-OMe) it was above 44.1 µg/mL; in that of `Cc1ccc(C(=O)OC(C)C(=O)Nc2ccc3c(c2)OCO3)c(O)c1` (centres undefined), 9.5 µg/mL (≈ 27.7 µM); in that of `CCc1nonc1NC(=O)c1oc2ccc(Cl)cc2c1C`, below 0.2 µg/mL.
Then `CCc1ccc(OCCn2ccnc2)cc1`, with 19.7 µg/mL (≈ 91.1 µM); and `CC(C)C(=O)Nc1cc(C(F)(F)F)ccc1-n1ccnc1`, with 38.8 µg/mL (≈ 131 µM).
Then `N#C/C(=C(/O)COC(=O)c1ccc(O)cc1)c1nc2ccccc2[nH]1`, with 9 µg/mL (≈ 26.8 µM); and `NC(=O)C1CCN(C(=O)/C=C/c2cc(Br)ccc2F)CC1`, with 47.7 µg/mL (≈ 134 µM).
